In brackets after ≈: the same amount, converted by molar mass.
Key:
[1] = system: Staphylococcus aureus NRS383; assay: MIC determination using agar dilution method; type: cell-based; details: MRSA / NRS 383, read-out: MIC (μg/ml) NRS383
Experimental: (§1) Antibacterial activity was determined on strains from Mutabilis internal collection.
(§2) This protocol is compliant with Clinical Laboratory Standards Institute (CLSI) methodology as described in M7-A7 document of the CLSI. The compound to be tested is incorporated into Mueller-Hinton Agar medium (Fluka, Reference 70191) at one concentration per plate according to a geometric series of reason 2. Plates are inoculated with mid-log phase bacteria (inoculum=1×10^4 cfu/spot) and incubated overnight at 35° C. […] All manipulations, but compound handling (in pure DMSO), are performed under sterile conditions. The final DMSO concentration of DMSO in the plates is 2%. Vancomycin is used as reference.

[2] = system: Staphylococcus aureus NRS100; assay: MIC determination using agar dilution method; type: cell-based; details: MRSA / NRS 100, read-out: MIC (μg/ml) NRS100
Experimental: as §1, §2

[3] = system: Staphylococcus aureus NRS127; assay: MIC determination using agar dilution method; type: cell-based; details: MRSA / NRS 127, read-out: MIC (μg/ml) NRS127
Experimental: as §1, §2

[4] = system: Staphylococcus aureus NRS130; assay: MIC determination using agar dilution method; type: cell-based; details: MSSA / NRS 130, read-out: MIC (μg/ml) NRS130
Experimental: as §1, §2

[5] = system: Staphylococcus aureus NRS386; assay: MIC determination using agar dilution method; type: cell-based; details: MRSA / NRS 386, read-out: MIC (μg/ml) NRS386
Experimental: as §1, §2

[6] = system: Staphylococcus aureus NRS385; assay: MIC determination using agar dilution method; type: cell-based; details: MRSA / NRS 385, read-out: MIC (μg/ml) NRS385
Experimental: as §1, §2

[7] = system: Staphylococcus aureus NRS22; assay: MIC determination using agar dilution method; type: cell-based; details: MRSA / NRS 22, read-out: MIC (μg/ml) NRS22
Experimental: as §1, §2

[8] = system: Staphylococcus aureus NRS382; assay: MIC determination using agar dilution method; type: cell-based; details: MRSA / NRS 382, read-out: MIC (μg/ml) NRS382
Experimental: as §1, §2

[9] = system: Staphylococcus aureus NRS482; assay: MIC determination using agar dilution method; type: cell-based; details: MRSA / NRS 482, read-out: MIC (μg/ml) NRS482
Experimental: as §1, §2

[10] = system: Staphylococcus aureus NRS483; assay: MIC determination using agar dilution method; type: cell-based; details: MRSA / NRS 483, read-out: MIC (μg/ml) NRS483
Experimental: as §1, §2

[11] = system: Staphylococcus aureus NRS262; assay: MIC determination using agar dilution method; type: cell-based; details: MSSA / NRS 262, read-out: MIC (μg/ml) NRS262
Experimental: as §1, §2

[12] = system: Staphylococcus aureus NRS484; assay: MIC determination using agar dilution method; type: cell-based; details: MRSA / NRS 484, read-out: MIC (μg/ml) NRS484
Experimental: as §1, §2

[13] = system: Staphylococcus aureus NRS192; assay: MIC determination using agar dilution method; type: cell-based; details: MRSA / NRS 192, read-out: MIC (μg/ml) NRS192
Experimental: as §1, §2

[14] = system: Staphylococcus aureus NRS120; assay: MIC determination using agar dilution method; type: cell-based; details: MRSA / NRS 120, read-out: MIC (μg/ml) NRS120
Experimental: as §1, §2

[15] = system: Staphylococcus aureus NRS128; assay: MIC determination using agar dilution method; type: cell-based; details: MSSA / NRS 128, read-out: MIC (μg/ml) NRS128
Experimental: as §1, §2

[16] = system: Staphylococcus aureus NRS384; assay: MIC determination using agar dilution method; type: cell-based; details: MRSA / NRS 384, read-out: MIC (μg/ml) NRS384
Experimental: as §1, §2

[17] = system: Staphylococcus aureus NRS121; assay: MIC determination using agar dilution method; type: cell-based; details: MRSA / NRS 121, read-out: MIC (μg/ml) NRS121
Experimental: as §1, §2

[18] = system: Staphylococcus aureus NRS119; assay: MIC determination using agar dilution method; type: cell-based; details: MRSA / NRS 119, read-out: MIC (μg/ml) NRS119
Experimental: as §1, §2

[19] = system: Staphylococcus aureus NRS123; assay: MIC determination using agar dilution method; type: cell-based; details: MRSA / NRS 123, read-out: MIC (μg/ml) NRS123
Experimental: as §1, §2

[20] = system: Staphylococcus aureus NRS269; assay: MIC determination using agar dilution method; type: cell-based; details: MRSA / NRS 269, read-out: MIC (μg/ml) NRS269
Experimental: as §1, §2

[21] = system: Staphylococcus aureus strain ATCC 29213; assay: In vivo antibacterial activity, thigh infection model in neutropenic Swiss mice; details: 50 mg/kg subcutaneously, 1.5 h after infection, FIG. 2
S. aureus CIP 54.146 = assay: MIC determination using broth microdilution method; type: cell-based; details: Staphylococcus aureus, CIP54 / MSSA, read-out: MIC (μg/ml) S. aureus CIP 54.146
Experimental: The compounds of the invention are useful antibacterial agents having a selective spectrum of activity in vitro against bacterial strains relying on FabI and related targets. […] The activity is presented as Minimum Inhibitory Concentration (MIC) expressed in μg/ml and was determined using broth microdilution or Agar dilution methods.
as §1
This protocol is compliant with Clinical Laboratory Standards Institute (CLSI) methodology as described in M7-A7 document of the CLSI. The compound to be tested is diluted according to a geometric series of reason 2 in pure DMSO. Dilutions are transferred in sterile polystyrene microplates, followed by mid-log phase bacteria in cation-adjusted Muller-Hinton broth (ca-MHB, Fluka, Reference 90922) with a final inoculum of 5×10^5 cfu/ml. Microplates are incubated overnight at 35° C. MIC is defined as the lowest concentration of antimicrobial agent that completely prevents visible bacterial growth. All manipulations, but compound handling (in pure DMSO), are performed under sterile conditions. The final concentration of DMSO in the plates is 2%.

[22] = target: recombinant S. aureus FabI enzyme (Staphylococcus aureus (strain MRSA252), UniProt Q6GI75); assay: FabI inhibition, fluorescence based assay; type: biochemical; details: in vitro
Experimental: Compound inhibitory activity of FabI enzyme is measured in vitro by the […] determination using a fluorescence based assay.
The protein FabI from S. aureus is prepared and purified using standard methods for recombinant protein expression after cloning of the gene in a prokaryotic expression vector.
The biochemical activity of the FabI enzyme is assessed using the following method.
The assay buffer “AB” contained 50 mM ADA (N-(2-acetamido)iminodiacetic acid monosodium salt) pH 6.5, 1 mM dithiothreitol, 0.006% Triton-X100 and 50 mM NaCl.
The following components are added in a white polystyrene Costar plate (Ref 3912) up to a final volume of 55.5 μL: 1.5 μL DMSO or inhibitor dissolved in DMSO and 54 μL of a FabI/NADPH/NADP+ mixture in AB. After 60 min of pre-incubation at room temperature, the reaction is started by addition of 5 μL of trans-2-octenoyl N-acetylcysteamine thioester (t-o-NAC) to a final volume of 60.5 μL. This reaction mixture is then composed of 2 nM FabI, 40 μM NADPH (Sigma, N7505), 10 μM NADP+ (Sigma, N5755), 100 μM t-O-NAC and compound at defined concentration. Fluorescence intensity of NADPH (λex=360 nm, […]) is measured immediately after t-O-NAC addition (T0), and approximately 50 min later (T50) by a Fluostar Optima (BMG) so as to achieve ±30% of NADPH conversion. Enzyme activity is calculated by first subtracting TO signal to T50 and then subtracting background signal (FabI=0). Percentages of inhibition are calculated against untreated samples (Inhibitor=0) and IC50 are fitted to a classical Langmuir equilibrium model using XLFIT (IDBS).

E. coli FabI = E. coli FabI (Escherichia coli (strain K12), UniProt P0AEK4); details: literature (Ward et al.); cited from earlier work
Sequence of E. coli FabI (P0AEK4 whole entry): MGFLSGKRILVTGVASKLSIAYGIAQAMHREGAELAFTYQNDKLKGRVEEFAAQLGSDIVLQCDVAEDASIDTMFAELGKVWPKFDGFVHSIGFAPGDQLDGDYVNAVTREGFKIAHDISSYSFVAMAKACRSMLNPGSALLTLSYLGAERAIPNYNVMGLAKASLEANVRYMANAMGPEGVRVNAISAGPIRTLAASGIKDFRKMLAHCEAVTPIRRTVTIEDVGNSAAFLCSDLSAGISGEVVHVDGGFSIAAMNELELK

| SMILES | MIC [1] | MIC [2] | MIC [3] | MIC [4] | MIC [5] | MIC [6] | MIC [7] | MIC [8] | MIC [9] | MIC [10] | MIC [11] | MIC [12] | MIC [13] | MIC [14] | MIC [15] | MIC [16] | MIC [17] | MIC [18] | MIC [19] | MIC [20] | other results |
| --- | --- | --- | --- | --- | --- | --- | --- | --- | --- | --- | --- | --- | --- | --- | --- | --- | --- | --- | --- | --- | --- |
| CN[C@H](CC(C)C)C(=O)N[C@H]1C(=O)N[C@@H](CC(N)=O)C(=O)N[C@H]2C(=O)N[C@H]3C(=O)N[C@H](C(=O)N[C@H](C(=O)O)c4cc(O)cc(O)c4-c4cc3ccc4O)[C@H](O)c3ccc(c(Cl)c3)Oc3cc2cc(c3O[C@@H]2O[C@H](CO)[C@@H](O)[C@H](O)[C@H]2O[C@H]2C[C@](C)(N)[C@H](O)[C@H](C)O2)Oc2ccc(cc2Cl)[C@H]1O [Vancomycin, reference compound] | 0.5 µg/mL (≈ 0.345 µM) | 1 µg/mL (≈ 0.69 µM) | 1 µg/mL (≈ 0.69 µM) | 1 µg/mL (≈ 0.69 µM) | 1 µg/mL (≈ 0.69 µM) | 1 µg/mL (≈ 0.69 µM) | 4 µg/mL (≈ 2.76 µM) | 1 µg/mL (≈ 0.69 µM) | 1 µg/mL (≈ 0.69 µM) | 1 µg/mL (≈ 0.69 µM) | 1 µg/mL (≈ 0.69 µM) | 1 µg/mL (≈ 0.69 µM) | 1 µg/mL (≈ 0.69 µM) | 1 µg/mL (≈ 0.69 µM) | 1 µg/mL (≈ 0.69 µM) | 1 µg/mL (≈ 0.69 µM) | 1 µg/mL (≈ 0.69 µM) | 1 µg/mL (≈ 0.69 µM) | 1 µg/mL (≈ 0.69 µM) | 2 µg/mL (≈ 1.38 µM) |  |
| CCCCCOC1CN(C(=O)/C=C/c2cnc3c(c2)CCC(=O)N3)C1 [Example 15, 6-{(1E)-3-Oxo-3-[3-(pentyloxy)azetidin-1-yl]prop-1-en-1-yl}-3,4-dihydro-1,8-naphthyridin-2(1H)-one] | 4 µg/mL (≈ 11.6 µM) | 1 µg/mL (≈ 2.91 µM) | 2 µg/mL (≈ 5.82 µM) | 2 µg/mL (≈ 5.82 µM) | 4 µg/mL (≈ 11.6 µM) | 4 µg/mL (≈ 11.6 µM) | 4 µg/mL (≈ 11.6 µM) | 4 µg/mL (≈ 11.6 µM) | 4 µg/mL (≈ 11.6 µM) | 4 µg/mL (≈ 11.6 µM) | 4 µg/mL (≈ 11.6 µM) | 4 µg/mL (≈ 11.6 µM) | 4 µg/mL (≈ 11.6 µM) | 2 µg/mL (≈ 5.82 µM) | 1 µg/mL (≈ 2.91 µM) | 4 µg/mL (≈ 11.6 µM) | 2 µg/mL (≈ 5.82 µM) | 2 µg/mL (≈ 5.82 µM) | 2 µg/mL (≈ 5.82 µM) | 4 µg/mL (≈ 11.6 µM) | in vivo antibacterial activity (bacterial burden in the thigh of infected mice) [21]: able to protect mice against thigh dissemination; MIC (S. aureus CIP 54.146): 4 µg/mL (≈ 11.6 µM); IC50 [22]: 25 nM |
| Oc1cc(Cl)ccc1Oc1ccc(Cl)cc1Cl [Triclosan] |  |  |  |  |  |  |  |  |  |  |  |  |  |  |  |  |  |  |  |  | inhibition of E. coli FabI (E. coli FabI): reversible, tight-binding inhibitor |

— patent US8846711B2, “Heterocyclic acrylamides and their use as pharmaceuticals” (Fab Pharma S.A.S., priority 2009, dated 2014)
